This assay has as its system K14 mouse model of type 2 Gaucher disease. Kind of assay: K14 mouse model of type 2 Gaucher disease. It is filed as in vivo. An excerpt: As noted above, Gaucher Disease results from a deficiency of the lysosomal enzyme glucocerebrosidase (GC). In the most common phenotype of Gaucher disease (type 1), pathology is limited to the reticuloendothelial and skeletal systems and there are no neuropathic symptoms. See Barranger, Glucosylceramide lipidosis: Gaucher disease. In: Scriver C R B A, Sly W S, Valle D, editor. The Metabolic Basis of Inherited Disease. New York: McGraw-Hill. pp. 3635-3668 (2001). In neuropathic Gaucher disease (nGD), subdivided into type 2 and type 3 Gaucher disease, the deficiency of glucocerebrosidase (GC) causes glucosylceramide (GluCer; GL-1) and glucosylsphingosine (GluSph) to accumulate in the brain, leading to neurologic impairment. Type 2 Gaucher disease is characterized by early onset, rapid progression, extensive pathology in the viscera and central nervous system, and death usually by 2 years of age. Type 3 Gaucher disease, also known as subacute nGD, is an intermediate phenotype with varying age of onset and different degrees of severity and rates of progression. Goker-Alpan et al., The Journal of Pediatrics 143: 273-276 (2003). A recent development has produced the K14 lnl/lnl mouse model of type 2 Gaucher disease (hereinafter, the “K14 mouse”); this mouse model closely recapitulates the human disease showing ataxia, seizures, spasticity and a reduced median lifespan of only 14 days. Enquist et al., PNAS 104: 17483-17488 (2007).
As in patients with nGD, several mouse models of the disease have increased levels of GluCer and GluSph in the brain due to the deficiency in GC activity. Liu et al., PNAS 95: 2503-2508 (1998) and Nilsson, J. Neurochem 39: 709-718 (1982). The “K14” mice display a neuropathic phenotype that shares many pathologic features with type 2 Gaucher disease, such as neurodegeneration, astrogliosis, microglial proliferation, and increased levels of GluCer and GluSph in specific brain regions. Enquist et al. (2007).
Clinical management of patients affected by nGD poses a challenge for treating physicians both because of the severity of type 2 disease and the inability of the current therapies to cross the blood brain barrier (BBB). Current treatment of non-nGD relies on the intravenous delivery of recombinant human glucocerebrosidase (Imiglucerase; Cerezyme™) to replace the missing enzyme or the administration of glucosylceramide synthase inhibitors to attenuate substrate (GL-1) production. […] Current small molecule glucosylceramide synthase inhibitors in the clinic are not likely to address the neuropathic phenotypes of nGD.

As to `CC(C)(NC(=O)OC1CN2CCC1CC2)c1cccc(-c2ccc(F)cc2)c1` (stereo not shown) [Gz161, Quinuclidin-3-yl (2-(4′-fluoro-[1,1′-biphenyl]-3-yl)propan-2-yl)carbamate], the brain neuropathology result is on record as “reduced” and the lifespan result is “extended”. Further, under “brain”, the “brain GluCer” value is given as “reduce” and the “brain GluSph” value was “reduce”.
